The values that follow come from ChEMBL document CHEMBL5291721, “A preclinical secondary pharmacology resource illuminates target-adverse drug reaction associations of marketed drugs” (Nat Commun, 2023).

*1 amine or outer side, *2 acyl side, *3 side chain or, on linkers, in order; H or OH if unused. Where a SMILES comes first, the peptide text is derived from it. Bridges are numbered along the chain shown (N, C = ends). [ ]: non-standard residue; d: D form. The star is where a group is joined. hTyr(3S-OH,4S-OH,3'-OSO3H) = N[C@H](C(=O)O)[C@H](O)[C@@H](O)c1ccc(O)c(OS(=O)(=O)O)c1; Orn(4R-OH,5R-OH) = O=C([C@H](C[C@@H](O)[C@@H](O)N[*:3])N[*:1])[*:2]; Pro(3S-OH,4S-Me) = C[C@H]1CN[C@H](C(=O)O)[C@H]1O; X1 = CCCCCOc1ccc(-c2cc(-c3ccc(C(=O)*)cc3)no2)cc1; Gln(3R-OH) = NC(=O)C[C@@H](O)[C@H](N)C(=O)O; Hyp = O=C(O)[C@@H]1C[C@@H](O)CN1

For experiment [1], the target named is T1, Progesterone receptor (Homo sapiens, UniProt P06401).
T1 sequence (P06401 whole entry): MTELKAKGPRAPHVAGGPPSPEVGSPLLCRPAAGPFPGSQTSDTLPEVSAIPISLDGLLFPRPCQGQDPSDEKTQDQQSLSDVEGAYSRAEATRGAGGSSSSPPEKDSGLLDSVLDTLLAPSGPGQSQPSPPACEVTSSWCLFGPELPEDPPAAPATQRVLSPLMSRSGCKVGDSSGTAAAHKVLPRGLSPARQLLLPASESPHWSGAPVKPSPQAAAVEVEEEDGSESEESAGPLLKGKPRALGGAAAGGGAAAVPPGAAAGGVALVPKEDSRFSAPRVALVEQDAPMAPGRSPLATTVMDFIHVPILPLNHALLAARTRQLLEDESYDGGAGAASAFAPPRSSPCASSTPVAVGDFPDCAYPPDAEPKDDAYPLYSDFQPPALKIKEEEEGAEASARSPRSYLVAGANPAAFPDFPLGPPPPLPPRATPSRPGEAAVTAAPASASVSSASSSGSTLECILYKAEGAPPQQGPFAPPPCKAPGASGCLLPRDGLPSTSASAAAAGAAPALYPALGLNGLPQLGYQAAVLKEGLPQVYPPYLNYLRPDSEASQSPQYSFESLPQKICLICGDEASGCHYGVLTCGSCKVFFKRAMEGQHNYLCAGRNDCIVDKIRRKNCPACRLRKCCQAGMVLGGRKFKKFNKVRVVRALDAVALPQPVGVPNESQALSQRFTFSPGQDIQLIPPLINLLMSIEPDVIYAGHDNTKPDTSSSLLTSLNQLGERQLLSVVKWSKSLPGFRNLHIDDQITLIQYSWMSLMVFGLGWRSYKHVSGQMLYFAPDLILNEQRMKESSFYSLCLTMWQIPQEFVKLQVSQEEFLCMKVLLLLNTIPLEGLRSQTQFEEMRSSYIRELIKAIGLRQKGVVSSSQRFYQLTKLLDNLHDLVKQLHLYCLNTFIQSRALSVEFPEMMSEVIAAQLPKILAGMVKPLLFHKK

For experiment [2], the target named is Vascular endothelial growth factor receptor 2 (Homo sapiens, UniProt P35968). The experiment is classed as functional.
Experiment [3] has as its target T2, Adenosine receptor A3 (Homo sapiens, UniProt P0DMS8).
T2 sequence (P0DMS8 whole entry): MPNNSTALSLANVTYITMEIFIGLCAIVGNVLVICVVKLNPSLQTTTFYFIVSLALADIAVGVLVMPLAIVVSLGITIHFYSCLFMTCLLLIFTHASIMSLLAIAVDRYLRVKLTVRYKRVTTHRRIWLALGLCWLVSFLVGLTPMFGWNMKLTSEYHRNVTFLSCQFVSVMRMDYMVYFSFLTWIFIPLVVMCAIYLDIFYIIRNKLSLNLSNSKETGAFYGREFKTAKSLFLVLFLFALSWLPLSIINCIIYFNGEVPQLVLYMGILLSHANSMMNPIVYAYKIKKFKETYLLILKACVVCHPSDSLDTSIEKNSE

Experiment [4] addresses T3, Muscarinic acetylcholine receptor M2 (Homo sapiens, UniProt P08172).
T3 sequence (P08172 whole entry): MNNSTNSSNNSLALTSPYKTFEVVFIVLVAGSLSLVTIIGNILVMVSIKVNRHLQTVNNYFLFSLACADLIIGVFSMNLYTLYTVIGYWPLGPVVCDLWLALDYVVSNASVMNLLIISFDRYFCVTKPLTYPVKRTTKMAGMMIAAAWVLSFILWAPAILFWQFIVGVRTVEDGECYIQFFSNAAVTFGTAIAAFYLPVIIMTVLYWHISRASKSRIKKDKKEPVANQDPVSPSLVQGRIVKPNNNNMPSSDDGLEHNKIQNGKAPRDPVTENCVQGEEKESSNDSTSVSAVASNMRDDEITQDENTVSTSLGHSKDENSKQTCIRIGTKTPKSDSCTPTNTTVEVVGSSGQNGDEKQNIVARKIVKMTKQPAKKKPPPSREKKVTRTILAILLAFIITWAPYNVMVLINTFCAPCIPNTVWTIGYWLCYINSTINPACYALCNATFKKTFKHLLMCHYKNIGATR
The experiment is classed as functional, cell-based.

For experiment [5], the target named is D(1A) dopamine receptor (Homo sapiens, UniProt P21728). The experiment is classed as functional, cell-based.
Experiment [6] has as its target T4, 5-hydroxytryptamine receptor 2C (Homo sapiens, UniProt P28335).
T4 sequence (P28335 whole entry): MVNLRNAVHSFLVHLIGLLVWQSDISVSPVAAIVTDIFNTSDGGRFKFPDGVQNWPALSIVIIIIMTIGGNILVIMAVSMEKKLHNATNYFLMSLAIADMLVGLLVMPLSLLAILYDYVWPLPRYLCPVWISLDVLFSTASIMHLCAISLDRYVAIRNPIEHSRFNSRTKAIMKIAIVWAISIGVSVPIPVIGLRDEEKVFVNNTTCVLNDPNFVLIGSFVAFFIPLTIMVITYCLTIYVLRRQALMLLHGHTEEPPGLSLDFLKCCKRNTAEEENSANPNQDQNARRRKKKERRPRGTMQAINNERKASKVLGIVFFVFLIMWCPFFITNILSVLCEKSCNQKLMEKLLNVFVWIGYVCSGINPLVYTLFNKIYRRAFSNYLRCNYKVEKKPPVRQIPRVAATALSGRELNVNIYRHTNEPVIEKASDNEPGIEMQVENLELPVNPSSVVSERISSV

The target of experiment [7] is Beta-1 adrenergic receptor (Homo sapiens, UniProt P08588). The experiment is classed as functional.
For experiment [8], the target named is T3, Muscarinic acetylcholine receptor M2. The experiment is classed as functional, cell-based. The source holds these as a separate data set.
The target of experiment [9] is T5, Muscarinic acetylcholine receptor M1 (Homo sapiens, UniProt P11229).
T5 sequence (P11229 whole entry): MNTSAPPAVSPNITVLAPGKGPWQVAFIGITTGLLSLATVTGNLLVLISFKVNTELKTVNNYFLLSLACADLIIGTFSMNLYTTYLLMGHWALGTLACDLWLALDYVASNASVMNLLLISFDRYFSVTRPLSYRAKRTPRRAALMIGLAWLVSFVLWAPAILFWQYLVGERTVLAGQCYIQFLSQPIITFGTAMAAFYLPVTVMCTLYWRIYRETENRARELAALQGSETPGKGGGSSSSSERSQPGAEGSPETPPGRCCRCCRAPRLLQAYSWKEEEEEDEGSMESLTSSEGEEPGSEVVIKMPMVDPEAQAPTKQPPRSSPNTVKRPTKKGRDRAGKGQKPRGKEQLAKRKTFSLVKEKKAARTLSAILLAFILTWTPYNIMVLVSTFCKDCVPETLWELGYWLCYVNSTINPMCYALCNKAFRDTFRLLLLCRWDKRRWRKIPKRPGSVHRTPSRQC
The experiment is classed as functional.

Experiment [10] addresses Histamine H3 receptor (Homo sapiens, UniProt Q9Y5N1).
Also: assay procedure not described here.

Sequence of D(1A) dopamine receptor (P21728 whole entry): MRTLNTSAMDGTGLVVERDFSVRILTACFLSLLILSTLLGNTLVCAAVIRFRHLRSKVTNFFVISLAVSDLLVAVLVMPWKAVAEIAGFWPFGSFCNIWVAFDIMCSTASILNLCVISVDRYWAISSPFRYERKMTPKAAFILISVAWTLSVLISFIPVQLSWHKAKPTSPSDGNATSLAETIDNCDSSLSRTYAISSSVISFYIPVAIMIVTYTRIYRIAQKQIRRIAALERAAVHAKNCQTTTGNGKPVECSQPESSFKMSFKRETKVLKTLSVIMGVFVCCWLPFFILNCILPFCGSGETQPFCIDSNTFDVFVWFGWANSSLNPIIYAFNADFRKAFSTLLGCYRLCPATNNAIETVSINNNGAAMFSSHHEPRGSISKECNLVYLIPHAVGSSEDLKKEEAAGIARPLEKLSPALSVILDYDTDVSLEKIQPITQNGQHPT
Sequence of Vascular endothelial growth factor receptor 2 (P35968 whole entry): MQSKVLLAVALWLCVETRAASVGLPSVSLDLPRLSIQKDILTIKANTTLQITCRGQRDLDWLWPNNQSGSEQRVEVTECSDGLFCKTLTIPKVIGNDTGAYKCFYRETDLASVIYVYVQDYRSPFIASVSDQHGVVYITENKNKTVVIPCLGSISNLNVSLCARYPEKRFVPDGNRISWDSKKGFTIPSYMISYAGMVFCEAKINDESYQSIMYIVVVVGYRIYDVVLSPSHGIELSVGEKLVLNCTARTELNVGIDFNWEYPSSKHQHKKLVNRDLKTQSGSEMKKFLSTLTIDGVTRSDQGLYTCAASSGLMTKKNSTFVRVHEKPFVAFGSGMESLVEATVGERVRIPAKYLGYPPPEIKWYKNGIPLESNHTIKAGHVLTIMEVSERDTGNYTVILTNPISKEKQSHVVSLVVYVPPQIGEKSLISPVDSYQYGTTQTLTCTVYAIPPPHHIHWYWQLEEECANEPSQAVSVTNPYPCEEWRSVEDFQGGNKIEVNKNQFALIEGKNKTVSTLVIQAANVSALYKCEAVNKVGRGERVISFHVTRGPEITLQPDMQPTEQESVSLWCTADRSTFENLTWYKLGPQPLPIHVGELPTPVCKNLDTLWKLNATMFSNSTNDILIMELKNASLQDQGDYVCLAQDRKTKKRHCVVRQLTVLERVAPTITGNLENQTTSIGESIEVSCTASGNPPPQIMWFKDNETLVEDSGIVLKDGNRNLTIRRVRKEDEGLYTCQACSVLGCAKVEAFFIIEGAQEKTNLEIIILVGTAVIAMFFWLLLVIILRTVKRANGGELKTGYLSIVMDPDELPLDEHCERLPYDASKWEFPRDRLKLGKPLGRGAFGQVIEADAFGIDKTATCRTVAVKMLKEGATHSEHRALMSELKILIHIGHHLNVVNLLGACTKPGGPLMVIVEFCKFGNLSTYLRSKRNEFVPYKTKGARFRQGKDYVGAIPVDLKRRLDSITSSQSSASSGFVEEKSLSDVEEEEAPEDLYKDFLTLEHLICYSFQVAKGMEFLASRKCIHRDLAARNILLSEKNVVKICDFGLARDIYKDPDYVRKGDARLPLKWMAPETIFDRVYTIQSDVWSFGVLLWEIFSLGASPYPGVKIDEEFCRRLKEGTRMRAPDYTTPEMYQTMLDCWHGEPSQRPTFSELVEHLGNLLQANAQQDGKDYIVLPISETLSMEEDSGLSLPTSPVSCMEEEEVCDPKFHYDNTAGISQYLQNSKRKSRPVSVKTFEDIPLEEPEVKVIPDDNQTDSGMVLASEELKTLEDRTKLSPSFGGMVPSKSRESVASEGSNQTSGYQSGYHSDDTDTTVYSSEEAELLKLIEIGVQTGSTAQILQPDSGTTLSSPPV
Sequence of Histamine H3 receptor (Q9Y5N1 whole entry): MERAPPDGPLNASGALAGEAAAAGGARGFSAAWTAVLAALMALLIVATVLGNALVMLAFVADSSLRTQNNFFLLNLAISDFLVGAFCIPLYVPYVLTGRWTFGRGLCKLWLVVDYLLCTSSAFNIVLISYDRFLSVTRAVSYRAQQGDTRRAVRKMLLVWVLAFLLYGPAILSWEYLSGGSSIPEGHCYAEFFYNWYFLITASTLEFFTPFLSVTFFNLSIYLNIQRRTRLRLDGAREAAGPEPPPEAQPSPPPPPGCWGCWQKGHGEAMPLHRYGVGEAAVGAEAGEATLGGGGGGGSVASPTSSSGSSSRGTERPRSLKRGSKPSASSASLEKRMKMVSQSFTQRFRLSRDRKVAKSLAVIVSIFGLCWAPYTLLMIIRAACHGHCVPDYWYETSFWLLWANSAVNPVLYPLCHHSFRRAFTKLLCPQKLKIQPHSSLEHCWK
Sequence of Beta-1 adrenergic receptor (P08588 whole entry): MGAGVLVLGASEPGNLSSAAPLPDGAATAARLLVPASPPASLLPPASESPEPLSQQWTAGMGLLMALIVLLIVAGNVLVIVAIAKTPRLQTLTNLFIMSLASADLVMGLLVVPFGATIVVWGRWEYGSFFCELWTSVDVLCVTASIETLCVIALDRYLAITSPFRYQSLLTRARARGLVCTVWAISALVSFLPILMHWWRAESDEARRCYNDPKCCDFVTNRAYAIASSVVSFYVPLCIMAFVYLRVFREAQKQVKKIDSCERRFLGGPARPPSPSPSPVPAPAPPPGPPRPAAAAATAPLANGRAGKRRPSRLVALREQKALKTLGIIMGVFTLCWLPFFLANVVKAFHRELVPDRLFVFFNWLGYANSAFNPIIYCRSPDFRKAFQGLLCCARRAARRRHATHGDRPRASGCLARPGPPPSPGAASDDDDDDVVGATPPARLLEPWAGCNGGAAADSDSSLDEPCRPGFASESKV

A word on the AC50: it is the concentration at which the activity in the assay is half-maximal. A lower AC50 goes with greater potency. For `Cn1c(=O)c2c(ncn2CC(O)CO)n(C)c1=O` (centres undefined) [DYPHYLLINE], the AC50 in [1], in [2] and in [3] was above 30 µM throughout.

For the compound `N=C(N)NCc1cccc([123I])c1` [IOBENGUANE I 123], the half-maximal activity concentration (AC50) in experiment [1] and in [2] was above 30 µM throughout.

For the compound `C=C1c2c(Cl)ccc(O)c2C(=O)C2=C(O)[C@]3(O)C(=O)C(C(N)=O)=C(O)[C@@H](N(C)C)[C@@H]3[C@@H](O)[C@H]12` [MECLOCYCLINE], the AC50 in [1] and in experiment [2] was above 30 µM throughout.

With `Cc1cc2c(OCC(O)CNC(C)C)cccc2[nH]1` (centres undefined) [MEPINDOLOL], the AC50 in experiment [1] and in experiment [2] was above 30 µM throughout.

`CC(=O)/N=c1/sc(S(N)(=O)=O)nn1C` [METHAZOLAMIDE]: the concentration at half-maximal activity (AC50) is above 10 µM in experiment [4]; above 30 µM in experiment [1]; above 10 µM in experiment [5]; above 30 µM in experiment [2]; above 10 µM in [3]; above 30 µM in experiment [6]. The AC50 in experiment [7], in experiment [8] and in [9] was above 10 µM in each case.

In the case of `CCCCCOc1ccc(-c2cc(-c3ccc(C(=O)N[C@H]4C[C@@H](O)[C@@H](O)NC(=O)[C@@H]5[C@@H](O)[C@@H](C)CN5C(=O)[C@H]([C@H](O)CC(N)=O)NC(=O)[C@H]([C@H](O)[C@@H](O)c5ccc(O)c(OS(=O)(=O)O)c5)NC(=O)[C@@H]5C[C@@H](O)CN5C(=O)[C@H]([C@@H](C)O)NC4=O)cc3)no2)cc1` [MICAFUNGIN] (X1-[Orn(4R-OH,5R-OH)]T[Hyp][hTyr(3S-OH,4S-OH,3'-OSO3H)][Gln(3R-OH)][Pro(3S-OH,4S-Me)]; lactam 1-C), the concentration at half-maximal activity (AC50) in experiment [1] was 3.87 µM; in [2], above 30 µM.

For `CCOc1cc(N)c(Cl)cc1C(=O)NCC1CN(Cc2ccc(F)cc2)CCO1` (centres undefined) [MOSAPRIDE], the AC50 in experiment [1] and in [2] was above 30 µM in each case.

As for `CCOc1ccc2ccccc2c1C(=O)N[C@@H]1C(=O)N2[C@@H]1SC(C)(C)[C@@H]2C(=O)O` [NAFCILLIN], the AC50 in [1] and in experiment [2] was above 30 µM in each case.

Take `CN1CCC[C@H]1c1cccnc1` [NICOTINE]: the AC50 in experiment [1] and in experiment [2] was above 30 µM throughout.

For `CC(=O)Oc1ccccc1C(=O)Nc1ncc([N+](=O)[O-])s1` [NITAZOXANIDE], the half-maximal activity concentration (AC50) in [4] was 1.4 µM; in experiment [10], 10 µM; in experiment [1], above 30 µM; in experiment [5], above 30 µM; in experiment [2] it was above 30 µM; in experiment [3], 5 µM. Also, the concentration at half-maximal activity (AC50) in [6] was 0.45 µM; in experiment [7], 8.8 µM; in experiment [9] it was above 30 µM.

As to `CCCCCCCCCCC[C@@H](C[C@@H]1OC(=O)[C@H]1CCCCCC)OC(=O)[C@H](CC(C)C)NC=O` [ORLISTAT], the concentration at half-maximal activity (AC50) in experiment [1] and in experiment [2] was above 30 µM in each case.

As to `O=C1[C@H]2CCCC[C@H]2C(=O)N1CCCCN1CCN(c2nsc3ccccc23)CC1` [PEROSPIRONE], the AC50 in experiment [1] and in experiment [2] was above 30 µM throughout.

Consider `CN(C)CCC(c1ccccc1)c1ccccn1` (centres undefined) [PHENIRAMINE], for which the AC50 in experiment [1] and in experiment [2] was above 30 µM each time.

Turning to `CNC[C@H](O)c1cccc(O)c1` [PHENYLEPHRINE], the AC50 in experiment [4] is above 10 µM; in experiment [10], above 10 µM; in [1], above 30 µM; in experiment [5], 3.13 µM; in experiment [2], above 30 µM; in experiment [3], above 30 µM. Moreover, the concentration at half-maximal activity (AC50) in experiment [6] was above 30 µM; in [8] it was above 10 µM; in [9] it was above 10 µM.

Turning to `CC(C)COc1ccc(CNC(=O)N(Cc2ccc(F)cc2)C2CCN(C)CC2)cc1` [PIMAVANSERIN], the AC50 in experiment [1] and in [2] was above 30 µM each time.

In the case of `CC(C)[N+](C)(CCOC(=O)C1c2ccccc2Oc2ccccc21)C(C)C` [PROPANTHELINE], the concentration at half-maximal activity (AC50) in experiment [1] and in [2] was above 30 µM in each case.

Consider `CN(C)C(=O)c1nc(CNC(=O)CN)n(-c2ccc(Cl)cc2C(=O)c2ccccc2Cl)n1` [RILMAZAFONE], for which the AC50 in experiment [1] and in experiment [2] was above 30 µM throughout.

For `NC(=O)NS(=O)(=O)c1ccc(N)cc1` [SULFACARBAMIDE], the AC50 in [1] and in experiment [2] was above 30 µM in each case.

For the compound `CCCCCCCCNC(C)C(O)c1ccc(SC(C)C)cc1` (centres undefined) [SULOCTIDIL], the AC50 in [1] and in experiment [2] was above 30 µM each time.

On to `NCCc1ccc(O)cc1` [TYRAMINE], for which the AC50 in [1] and in experiment [2] was above 30 µM throughout.

Take `CCCCCCCCCCCCCCCC(=O)OC/C=C(C)/C=C/C=C(C)/C=C/C1=C(C)CCCC1(C)C` [VITAMIN A PALMITATE]: the AC50 in [1] and in [2] was above 30 µM each time.
